# Literature values as cited in patent US12295926B1, “Modified release gamma-hydroxybutyrate formulations having improved pharmacokinetics” (Flamel Ireland Limited, priority 2022, dated 2025).
# Where two headings read alike, the source gives them in different places.
# Assays:
# [1] = system: male and female rats; details: 150, 350, or 1,000 mg/kg/day
# [2] = 4.5 g oral
# [3] = system: pregnant rabbits; details: 300, 600, or 1,200 mg/kg/day
# [4] = 6 g per day with diclofenac 50 mg twice per day
# [5] = system: CYP3A; details: up to 3 mM (378 mcg/mL)
# [6] = molecular target: CYP2C19 (Homo sapiens, UniProt P33261); details: up to 3 mM (378 mcg/mL)
# Chain of CYP2C19 (P33261 whole entry): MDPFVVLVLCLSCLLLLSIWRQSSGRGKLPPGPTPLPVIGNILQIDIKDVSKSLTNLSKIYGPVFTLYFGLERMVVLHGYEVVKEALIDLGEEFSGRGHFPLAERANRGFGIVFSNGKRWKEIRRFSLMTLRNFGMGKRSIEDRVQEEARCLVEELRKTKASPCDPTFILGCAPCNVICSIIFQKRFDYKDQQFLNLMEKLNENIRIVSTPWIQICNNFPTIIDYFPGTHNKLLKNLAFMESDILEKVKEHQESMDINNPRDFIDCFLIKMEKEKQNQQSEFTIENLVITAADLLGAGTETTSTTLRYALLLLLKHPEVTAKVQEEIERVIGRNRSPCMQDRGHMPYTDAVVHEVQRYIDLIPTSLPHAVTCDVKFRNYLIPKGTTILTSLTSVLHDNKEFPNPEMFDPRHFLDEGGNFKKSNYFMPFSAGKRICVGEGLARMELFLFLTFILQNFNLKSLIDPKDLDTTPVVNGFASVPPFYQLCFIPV
# [7] = system: rats; details: 0, 100, 300, or 900 mg/kg/day
# [8] = system: mammalian cells
# [9] = system: bacteria
# [10] = system: rats; details: highest dose tested (1,000 mg/kg/day)
# [11] = not given; remark: listed apart in the source
# [12] = molecular target: CYP2E1 (Homo sapiens, UniProt P05181); details: up to 3 mM (378 mcg/mL)
# Chain of CYP2E1 (P05181 whole entry): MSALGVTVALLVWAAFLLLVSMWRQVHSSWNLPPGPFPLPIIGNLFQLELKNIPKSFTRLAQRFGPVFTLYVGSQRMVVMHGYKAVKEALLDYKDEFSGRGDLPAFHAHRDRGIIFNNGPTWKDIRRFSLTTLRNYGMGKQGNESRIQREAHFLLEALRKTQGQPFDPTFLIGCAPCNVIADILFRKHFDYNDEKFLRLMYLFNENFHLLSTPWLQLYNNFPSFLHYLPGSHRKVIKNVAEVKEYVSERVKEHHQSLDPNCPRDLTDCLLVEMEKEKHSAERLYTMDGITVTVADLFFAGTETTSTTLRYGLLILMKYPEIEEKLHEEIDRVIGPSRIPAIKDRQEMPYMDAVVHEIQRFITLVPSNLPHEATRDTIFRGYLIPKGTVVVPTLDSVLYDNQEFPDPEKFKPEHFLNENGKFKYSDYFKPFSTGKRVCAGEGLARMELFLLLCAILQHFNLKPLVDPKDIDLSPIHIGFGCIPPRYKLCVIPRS
# [13] = 6 g per day with ibuprofen 800 mg four times per day
# [14] = system: rat; details: in vivo
# [15] = system: rats
# [16] = system: plasma proteins; details: 3 mcg/mL to 300 mcg/mL
# [17] = molecular target: CYP2D6 (Homo sapiens, UniProt P10635); details: up to 3 mM (378 mcg/mL)
# Chain of CYP2D6 (P10635 whole entry): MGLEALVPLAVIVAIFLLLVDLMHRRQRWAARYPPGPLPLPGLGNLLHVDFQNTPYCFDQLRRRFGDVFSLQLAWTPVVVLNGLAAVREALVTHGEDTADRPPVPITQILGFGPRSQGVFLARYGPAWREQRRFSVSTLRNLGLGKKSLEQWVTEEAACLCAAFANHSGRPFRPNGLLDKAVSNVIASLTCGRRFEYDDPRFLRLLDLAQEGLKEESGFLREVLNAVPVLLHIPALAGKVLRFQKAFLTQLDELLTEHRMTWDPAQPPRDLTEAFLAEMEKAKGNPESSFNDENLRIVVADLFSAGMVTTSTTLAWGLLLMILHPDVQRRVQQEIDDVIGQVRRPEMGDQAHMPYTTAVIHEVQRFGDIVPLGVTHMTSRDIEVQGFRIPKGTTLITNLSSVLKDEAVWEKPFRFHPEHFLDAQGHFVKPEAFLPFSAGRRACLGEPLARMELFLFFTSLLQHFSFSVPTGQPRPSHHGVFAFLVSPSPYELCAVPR
# [18] = molecular target: T1, CYP1A2 (Homo sapiens, UniProt P05177); details: up to 3 mM (378 mcg/mL)
# T1 sequence (P05177 1-516): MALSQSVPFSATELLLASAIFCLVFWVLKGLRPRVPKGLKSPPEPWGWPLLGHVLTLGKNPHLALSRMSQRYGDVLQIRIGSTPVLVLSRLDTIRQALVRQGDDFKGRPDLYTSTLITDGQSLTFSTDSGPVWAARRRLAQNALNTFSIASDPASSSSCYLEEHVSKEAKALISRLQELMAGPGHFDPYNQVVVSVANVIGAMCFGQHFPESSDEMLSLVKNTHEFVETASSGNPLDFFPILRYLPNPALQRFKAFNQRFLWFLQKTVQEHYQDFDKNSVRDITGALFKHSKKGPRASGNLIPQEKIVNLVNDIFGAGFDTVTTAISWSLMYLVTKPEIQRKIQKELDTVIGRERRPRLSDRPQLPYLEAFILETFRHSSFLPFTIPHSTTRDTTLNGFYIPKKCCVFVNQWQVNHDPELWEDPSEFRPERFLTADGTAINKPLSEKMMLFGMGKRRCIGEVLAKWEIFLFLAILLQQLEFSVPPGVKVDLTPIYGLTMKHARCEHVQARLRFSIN
# [19] = molecular target: CYP2C9 (Homo sapiens, UniProt P11712); details: up to 3 mM (378 mcg/mL)
# Chain of CYP2C9 (P11712 whole entry): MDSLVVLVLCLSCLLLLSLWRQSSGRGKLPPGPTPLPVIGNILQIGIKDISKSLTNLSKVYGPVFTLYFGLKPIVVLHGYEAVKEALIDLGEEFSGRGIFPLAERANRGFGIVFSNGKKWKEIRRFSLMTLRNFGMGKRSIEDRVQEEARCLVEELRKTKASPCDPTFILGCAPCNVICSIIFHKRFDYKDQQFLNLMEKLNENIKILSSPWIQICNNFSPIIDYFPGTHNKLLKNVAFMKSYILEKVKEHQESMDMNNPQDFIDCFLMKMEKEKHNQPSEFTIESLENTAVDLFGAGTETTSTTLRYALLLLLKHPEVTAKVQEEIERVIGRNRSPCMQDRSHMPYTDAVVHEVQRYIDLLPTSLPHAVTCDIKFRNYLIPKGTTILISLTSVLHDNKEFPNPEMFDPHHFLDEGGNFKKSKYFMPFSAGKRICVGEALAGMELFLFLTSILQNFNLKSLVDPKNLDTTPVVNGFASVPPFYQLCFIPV
# [20] = system: pregnant rats; details: 150, 350, or 1,000 mg/kg/day
# [21] = system: rat; details: 2-year
# [22] = system: mouse; details: 2-year
structure (smiles),measurement,setting,value
"O=C([O-])CCCO.[Na+] [sodium oxybate, sodium 4-hydroxybutanoate]",Effects on fertility,[1],no adverse effects on fertility
same,AUC in cirrhotic patients vs normal hepatic function,25 mg/kg oral,double
same,Apparent oral clearance,Child's Class A,4.5 mL/min/kg
same,Apparent oral clearance,Child's Class C,4.1 mL/min/kg
same,Apparent oral clearance,healthy adults,9.1 mL/min/kg
same,Gender differences in pharmacokinetics of GHB,[2],no gender differences
same,Developmental toxicity,[3],no clear evidence of developmental toxicity
same,Systemic exposure to GHB on co-administration,[4],no significant differences in systemic exposure to GHB
same,Inhibition of CYP3A,[5],does not significantly inhibit
same,Inhibition of CYP2C19,[6],does not significantly inhibit
same,Mortality in juvenile rats,[7],mortality was observed at the two highest doses tested
same,Chromosomal aberration,[8],negative
same,Bacterial gene mutation,[9],negative
same,Pre- and post-natal effects,[10],increased stillbirths and decreased offspring postnatal viability and body weight gain
same,Apparent volume of distribution,[11]; in vivo,0.19 to 0.384 L/kg
same,Elimination half-life,[11]; in vivo,30 to 60 min
same,Unchanged drug in human urine,[11]; within 6 to 8 hours after dosing,less than 5%
same,Inhibition of CYP2E1,[12],does not significantly inhibit
same,Systemic exposure to GHB on co-administration,[13],comparable systemic exposure to GHB
same,Micronucleus,[14],negative
same,Plasma exposure (AUC) relative to humans at the MRHD,[15]; highest dose tested,2 times
same,Tumors,"[15]; up to 1,000 mg/kg/day for 83 (males) or 104 (females) weeks",no increase in tumors
same,Bound to plasma proteins,[16],less than 1%
same,Inhibition of CYP2D6,[17],does not significantly inhibit
same,Inhibition of CYP1A2,[18],does not significantly inhibit
same,Inhibition of CYP2C9,[19],does not significantly inhibit
same,Developmental toxicity,[20],no clear evidence of developmental toxicity
O=C1CCCO1 [gamma-butyrolactone],Carcinogenic activity,[21],no clear evidence of carcinogenic activity
same,Carcinogenic activity,[22],no clear evidence of carcinogenic activity
